Source: patent US20110313156A1 (BOEHRINGER INGELHEIM INTERNATIONAL GMBH, priority 2008, published 2011)

Target: T1, His6-PDK1 (aa 52-556) (Homo sapiens, UniProt O15530)
T1 construct: 15 μL His6-PDK1 (aa 52-556) 3.33 ng/well); host or cells: baculovirus-infected insect cells
T1 sequence (O15530 52-556): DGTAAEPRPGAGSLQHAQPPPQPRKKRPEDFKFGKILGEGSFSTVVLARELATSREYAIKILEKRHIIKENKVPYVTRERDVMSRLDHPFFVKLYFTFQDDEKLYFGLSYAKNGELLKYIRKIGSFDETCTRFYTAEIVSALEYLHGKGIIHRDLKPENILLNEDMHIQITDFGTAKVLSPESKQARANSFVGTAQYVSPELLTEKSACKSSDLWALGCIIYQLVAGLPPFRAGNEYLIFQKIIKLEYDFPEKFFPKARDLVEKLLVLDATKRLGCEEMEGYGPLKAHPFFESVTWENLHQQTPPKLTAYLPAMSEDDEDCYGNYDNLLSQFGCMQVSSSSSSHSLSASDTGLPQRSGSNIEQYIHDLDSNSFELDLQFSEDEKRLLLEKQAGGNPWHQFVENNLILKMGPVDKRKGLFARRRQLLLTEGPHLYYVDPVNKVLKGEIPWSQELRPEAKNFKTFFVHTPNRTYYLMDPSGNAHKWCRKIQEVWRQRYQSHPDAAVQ
Assay: PDK1 kinase assay III (with Tween 20)
Assay type: biochemical
Conditions: compound at 10 μM; PDK1 kinase assay III (values without asterisk); read-out: % CTL (residual activity of the enzyme relative to DMSO control)
Procedure, shortened: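 Started with ATP, incubated 90 min at ambient temperature, then stopped with phosphoric acid. Asterisked values come from assay II (24 h or 5 min incubation).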

Row | remaining activity at 10 µM [%] | SMILES
1 | 33.4 | CCOC(=O)c1ccc(Nc2ncc3cc(/C=C/CNC(=O)c4cncn(Cc5ccc(F)c(F)c5)c4=O)ccc3n2)cc1 [IV-53, ethyl-4-({6-[(1E)-3-({[1-(3,4-difluorobenzyl)-6-oxo-1,6-dihydropyrimidin-5-yl]carbonyl}amino)prop-1-en-1-yl]quinazolin-2-yl}amino)benzoate]
2 | 16.6 | Cc1c(C(=O)NC/C=C/c2ccc3nc(Nc4ccc(N(C)C5CCN(C)CC5)cc4)ncc3c2)c(=O)n(Cc2ccc(F)c(F)c2)n1C [IV-54, 2-(3,4-difluorobenzyl)-1,5-dimethyl-N-{(2E)-3-[2-({4-[methyl(1-methylpiperidin-4-yl)amino]phenyl}amino)quinazolin-6-yl]prop-2-en-1-yl}-3-oxo-2,3-dihydro-1H-pyrazole-4-carboxamide]
3 | 16.5 | Cc1c(C(=O)NC/C=C/c2ccc3nc(Nc4ccc(NC5CCN(C)CC5)c(F)c4)ncc3c2)c(=O)n(Cc2ccc(F)c(F)c2)n1C [IV-55, 2-(3,4-difluorobenzyl)-N-{(2E)-3-[2-({3-fluoro-4-[(1-methylpiperidin-4-yl)amino]-phenyl}amino)quinazolin-6-yl]prop-2-en-1-yl}-1,5-dimethyl-3-oxo-2,3-dihydro-1H-pyrazole-4-carboxamide]
4 | 18.8 | O=C(NC/C=C/c1ccc2ncncc2c1)c1cncn(Cc2ccc(F)c(F)c2)c1=O [IV-56, 1-(3,4-difluorobenzyl)-6-oxo-N-[(2E)-3-(quinazolin-6-yl)prop-2-en-1-yl]-1,6-dihydropyrimidine-5-carboxamide]
5 | 35.5 | Cc1c(C(=O)NC/C=C/c2ccc3ncncc3c2)c(=O)n(Cc2ccc(F)c(F)c2)n1C [IV-57, 2-(3,4-difluorobenzyl)-1,5-dimethyl-3-oxo-N-[(2E)-3-(quinazolin-6-yl)prop-2-en-1-yl]-2,3-dihydro-1H-pyrazole-4-carboxamide]
6 | 14.6 | Cc1c(C(=O)NCC#Cc2cc3cnc(Nc4ccc(N5CCOCC5)cc4)nc3n(C(C)C)c2=O)c(=O)n(Cc2ccc(F)c(F)c2)n1C [IV-58, 2-(3,4-difluorobenzyl)-1,5-dimethyl-N-{3-[2-{[4-(morpholin-4-yl)phenyl]amino}-7-oxo-8-(propane-2-yl)-7,8-dihydropyrido[2,3-c]pyrimidin-6-yl]prop-2-yn-1-yl}-3-oxo-2,3-dihydro-1H-pyrazole-4-carboxamide]
7 | 12.9 | CC(C)n1c(=O)c(C#CCNC(=O)c2cncn(Cc3ccc(F)c(F)c3)c2=O)cc2cnc(Nc3ccc(N4CCOCC4)cc3)nc21 [IV-59, 1-(3,4-difluorobenzyl)-N-{3-[2-{[4-(morpholin-4-yl)phenyl]amino}-7-oxo-8-(propane-2-yl)-7,8-dihydropyrido[2,3-c]pyrimidin-6-yl]prop-2-yn-1-yl}-6-oxo-1,6-dihydropyrimidine-5-carboxamide]
8 | 13.3 | Cc1c(C#CCNC(=O)c2c(C)n(C)n(Cc3ccc(F)c(F)c3)c2=O)c(=O)n(CCN)c2nc(Nc3ccc(N4CCOCC4)cc3)ncc12 [IV-60, N-{3-[8-(2-aminoethyl)-5-methyl-2-{[4-(morpholin-4-yl)phenyl]amino}-7-oxo-7,8-dihydropyrido[2,3-d]pyrimidin-6-yl]prop-2-yn-1-yl}-2-(3,4-difluorobenzyl)-1,5-dimethyl-3-oxo-2,3-dihydro-1H-pyrazole-4-carboxamide]
9 | 13.9 | CN(C)Cc1ccc(Nc2ncc3cc(/C=C/CNC(=O)c4nc(Cl)cn(Cc5ccc(F)c(F)c5)c4=O)ccc3n2)cc1 [IV-61, 6-chloro-4-(3,4-difluorobenzyl)-N-{(2E)-3-[2-({4-[(dimethylamino)methyl]phenyl}amino)quinazolin-6-yl]prop-2-en-1-yl}-3-oxo-3,4-dihydropyrazine-2-carboxamide]
10 | 19.1 | O=C(NC/C=C/c1ccc2nc(Nc3ccccc3)ncc2c1)c1cncn(Cc2ccc(F)c(F)c2)c1=O [IV-62]

Row | SMILES | remaining activity at 10 µM [%]
11 | CC(C)Nc1ncc2cc(/C=C/CNC(=O)c3cccn(Cc4ccc(F)c(F)c4)c3=O)ccc2n1 [IV-91] | 26.1

Same assay, conditions: read-out: % CTL (residual activity of the enzyme relative to DMSO control)

Row | SMILES | remaining activity at 10 µM [%]
12 | Cc1c(C(=O)NC/C=C/c2ccc3nc(NC(C)C)ncc3c2)c(=O)n(Cc2ccc(F)c(F)c2)n1C [IV-92] | 21.6

Target: T2, ΔPH-PDK1 (aa 51-359; Q66A mutation) (Homo sapiens, UniProt O15530, Q66A)
T2 construct: a shortened PDK1 enzyme (aa 51-359; Q66A mutation) is used; His6 (N, cleaved yes)
T2 sequence (O15530 51-359 Q66A): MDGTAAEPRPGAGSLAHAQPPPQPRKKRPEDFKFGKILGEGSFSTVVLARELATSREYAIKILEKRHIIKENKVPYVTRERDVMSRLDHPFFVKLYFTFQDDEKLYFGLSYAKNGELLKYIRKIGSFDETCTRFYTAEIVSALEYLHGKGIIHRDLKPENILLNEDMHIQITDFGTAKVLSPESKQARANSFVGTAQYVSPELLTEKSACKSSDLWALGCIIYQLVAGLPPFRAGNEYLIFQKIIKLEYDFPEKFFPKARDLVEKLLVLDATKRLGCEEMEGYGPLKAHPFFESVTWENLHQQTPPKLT
Assay: PDK1 kinase assay II (shortened enzyme)
Assay type: biochemical
Conditions: compound at 10 μM, one asterisk: incubation for 24 h, read-out: % CTL (residual activity of the enzyme relative to DMSO control)
Method: Another assay was developed in which a shortened PDK1 enzyme (aa 51-359; Q66A mutation) is used that carries in the N-terminal position a His6 tag that is cleaved during purification. (ΔPH-PDK1).
The following components are combined in a well of a 96-well round-based dish (Messrs. Greiner bio-one, No. 650101): • 15 μL of compound to be tested in varying concentrations (e.g. Starting at 10 μM, and diluted in steps of 1:5) in 3.33% DMSO (final concentration 1% DMSO)/assay buffer (50 mM Tris pH 7.5, 0.05% β-mercaptoethanol, 10 mM Mg-acetate) • 15 μL (ΔPH-PDK1; 12 ng/well) and PDKtide ([…]-QEMFRDFDYIADWC) synthesised by Pepceuticals Limited, Nottingham, United Kingdom; 25 μM final concentration); (ΔPH-PDK1 and PDKtide are together diluted accordingly in assay buffer; PDKtide is present in this mixture as an 83.3 μM solution. These 30 […] are incubated for 24 h at RT before ATP solution is added. • 20 μL ATP solution (25 μM ATP with 1.0 μCi/well gamma-P33-ATP)
The reaction is started by adding the ATP solution and the mixture is incubated for 120 min at ambient temperature; at the start of the reaction the dishes are shaken gently. The reaction is stopped by the addition of 50 μL/well of 500 mM phosphoric acid (H3PO4) and incubated for about 20 min at ambient temperature. The precipitate is transferred by harvesting onto filter plates (96-well microtitre filter plate: UniFilter GF/C; Messrs Perkin Elmer; No. 6005174), then washed 6 times with 50 mM H3PO4 and dried at 60° C. Then the plate is stuck down with sealing tape, 25 μL/well of scintillation solution (Microscint 0; Messrs. Perkin Elmer; No. 6013611) are added and the amount of P33 precipitated is measured using the Wallac Betacounter. The measured data are evaluated using Graphpad Prism software.
The % CTL values indicate the residual activity of the enzyme after the addition of the inhibitory compound in the solvent DMSO in relation to the enzyme activity in the solvent DMSO without the addition of a compound (control). The majority of the values were determined using the PDK1 kinase assay III described hereinbefore. The values marked with an asterisk (* or**) were determined using the PDK1 kinase assay II described hereinbefore (one asterisk→incubation for 24 h; two asterisks→incubation for 5 min)

Row | remaining activity at 10 µM [%] | SMILES
13 | 8.9 | Cc1c(C(=O)NC/C=C/c2cc(OC3CCNCC3)c3nc(Nc4ccc(N5CCOCC5)cc4)ncc3c2)c(=O)n(Cc2ccc(F)c(F)c2)n1C
14 | 12.1 | Cc1c(C(=O)NCC#Cc2ccc3nc(Nc4ccc(C(=O)NCCO)cc4)ncc3c2)c(=O)n(Cc2ccc(F)c(F)c2)n1C
15 | 5.8 | Cc1ncc(C(=O)NC/C=C/c2ccc3nc(Nc4ccc(N(C)C5CCN(C)CC5)cc4)ncc3c2)c(=O)n1Cc1ccc(F)c(F)c1
16 | 15.7 | CN(C)Cc1c[nH]c(/C=C2\C(=O)Nc3cc(/C=C/CNC(=O)c4cncn(Cc5ccc(F)c(F)c5)c4=O)ccc32)c1 [I-15, 1-(3,4-difluorobenzyl)-N-{(2E)-3-[(3Z)-3-({4-[(dimethylamino)methyl]-1H-pyrrol-2-yl}methylidene)-2-oxo-2,3-dihydro-1H-indol-6-yl]prop-2-en-1-yl}-6-oxo-1,6-dihydropyrimidine-5-carboxamide]
17 | 6.6 | Cc1nc[nH]c1/C=C1\C(=O)Nc2cc(/C=C/CNC(=O)c3c(C)n(C)n(Cc4ccc(F)c(F)c4)c3=O)ccc21 [I-18, 2-(3,4-difluorobenzyl)-1,5-dimethyl-N-[(2E)-3-{(3Z)-3-[(4-methyl-1H-imidazol-5-yl)methylidene]-2-oxo-2,3-dihydro-1H-indol-6-yl}prop-2-en-1-yl]-3-oxo-2,3-dihydro-1H-pyrazole-4-carboxamide]
18 | 7.9 | C/C(=C\c1ccc2c(c1)NC(=O)/C2=C\c1cnc[nH]1)CNC(=O)c1cncn(Cc2ccc(F)c(F)c2)c1=O [I-45, 1-(3,4-difluorobenzyl)-N-{(2E)-3-[(3Z)-3-(1H-imidazol-5-ylmethylidene)-2-oxo-2,3-dihydro-1H-indol-6-yl]-2-methylprop-2-en-1-yl}-6-oxo-1,6-dihydropyrimidine-5-carboxamide]

Same assay, conditions: compound at 10 μM, two asterisks: incubation for 5 min, read-out: % CTL (residual activity of the enzyme relative to DMSO control)

Row | remaining activity at 10 µM [%] | SMILES
19 | 33 | CN(C)Cc1ccc(Nc2ncc3cc(C#CCNC(=O)c4cn(C)c(=O)n(Cc5ccc(F)c(F)c5)c4=O)ccc3n2)cc1 [III-21, 3-(3,4-difluorobenzyl)-N-{3-[2-({4-[(dimethylamino)methyl]phenyl}amino)-quinazolin-6-yl]prop-2-yn-1-yl}-1-methyl-2,4-dioxo-1,2,3,4-tetrahydropyrimidine-5-carboxamide]
